Source: US20260356841A1, “HETEROCYCLIC PYRIDINONE COMPOUNDS AS TRIGGERING RECEPTOR EXPRESSED ON MYELOID CELLS 2 AGONISTS AND METHODS OF USE” (Vigil Neuroscience, Inc., priority 2023, published 2026)

Target: T1, human TREM2 (Homo sapiens, UniProt Q9NZC2)
T1 construct: expressed in transfected cells; host or cells: HEK293T (HEK293T-hTREM2 cells)
Experiment: TREM2 agonist potency by cellular phosphorylation of Spleen Tyrosine Kinase (Syk), AlphaLisa, HEK293T-hTREM2 cells
Assay type: cell-based
Details: not given
Procedure, shortened: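 HEK293T cells co-expressing human TREM2 and DAP12, plated 20–24 h before use. Compounds applied 45 min at room temperature in assay buffer, then cells lysed and phospho-Syk quantified by AlphaLisa. Percent activation from a standard curve; EC50 from a four-parameter variable-slope fit.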

T1 sequence (Q9NZC2 19-230): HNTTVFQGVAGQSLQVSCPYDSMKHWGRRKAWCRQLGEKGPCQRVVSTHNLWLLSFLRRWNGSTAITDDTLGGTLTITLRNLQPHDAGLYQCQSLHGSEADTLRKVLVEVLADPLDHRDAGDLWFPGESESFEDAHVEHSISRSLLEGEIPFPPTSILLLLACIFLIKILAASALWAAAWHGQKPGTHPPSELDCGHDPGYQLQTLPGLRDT
T1 sequence (O43914 22-113 partner): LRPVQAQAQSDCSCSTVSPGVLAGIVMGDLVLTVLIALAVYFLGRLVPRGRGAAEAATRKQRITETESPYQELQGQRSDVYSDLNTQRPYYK

Compound | EC50 [nM]
Cc1nc2nc(N3C[C@@H](C)O[C@@H](c4ccc(=O)n(C)c4)C3)nc(C34CC(C(F)(F)F)(C3)C4)c2nc1C(F)F [Example 180, 5-[(2S,6R)-4-[6-(difluoromethyl)-7-methyl-4-[3-(trifluoromethyl)-1-bicyclo[1.1.1]pentanyl]pteridin-2-yl]-6-methyl-morpholin-2-yl]-1-methyl-pyridin-2-one] | < 100

Same assay, conditions: hTREM2 EC50 Data (HEK293 Cells); Syk phosphorylation, AlphaLisa; read-out: hTREM2 EC50

Compound | EC50 [nM]
Cc1nc2nc([C@H]3CCO[C@@H](c4cnc(=O)n(C)c4)C3)nc(C34CC(C(F)(F)F)(C3)C4)c2nc1C [Example 161] | < 100
COn1cc([C@H]2C[C@@H](c3nc(C45CC(C(F)(F)F)(C4)C5)c4nc(C)c(C)nc4n3)CCO2)ccc1=O [Example 203, 5-[(2R,4S)-4-[6,7-dimethyl-4-[3-(trifluoromethyl)-1-bicyclo[1.1.1]pentanyl]pteridin-2-yl]tetrahydropyran-2-yl]-1-methoxy-pyridin-2-one] | < 100
Cc1nc2nc([C@H]3CCO[C@@H](c4ccc(=O)n(C)c4)C3)nc(C34CC(Cl)(C3)C4)c2nc1C (single isomer, unassigned) [Example 40] | < 100
Cc1nc2nc(N3C[C@@H](C)O[C@@H](c4ccc(=O)n(N)c4)C3)nc(C34CC(C(F)(F)F)(C3)C4)c2nc1C [Example 184, 1-amino-5-[(2S,6R)-4-[6,7-dimethyl-4-[3-(trifluoromethyl)-1-bicyclo[1.1.1]pentanyl]pteridin-2-yl]-6-methyl-morpholin-2-yl]pyridin-2-one] | < 100
COc1nc2c(C34CC(C(F)(F)F)(C3)C4)nc([C@H]3CCO[C@@H](c4ccc(=O)n(C)c4)C3)nc2nc1C [Example 140, 5-[(2R,4S)-4-[6-methoxy-7-methyl-4-[3-(trifluoromethyl)-1-bicyclo[1.1.1]pentanyl]pteridin-2-yl]tetrahydropyran-2-yl]-1-methyl-pyridin-2-one] | < 100
Cc1nc2nc([C@H]3CCO[C@@H](c4ccc(=O)n(C)c4)C3)nc(C34CC(C(C)(F)F)(C3)C4)c2nc1C [Example 38, 5-[(2R,4S)-4-[4-[3-(1,1-difluoroethyl)-1-bicyclo[1.1.1]pentanyl]-6,7-dimethyl-pteridin-2-yl]tetrahydropyran-2-yl]-1-methyl-pyridin-2-one] | < 100
COc1nc2c(C34CC(C(F)(F)F)(C3)C4)nc([C@H]3CCO[C@@H](c4ccc(=O)n(C5CC5)c4)C3)nc2nc1C [Example 142, 1-cyclopropyl-5-[(2R,4S)-4-[6-methoxy-7-methyl-4-[3-(trifluoromethyl)-1-bicyclo-[1.1.1]pentanyl]pteridin-2-yl]tetrahydropyran-2-yl]pyridin-2-one] | < 100
Cc1nc2nc([C@H]3CCO[C@@H](c4ccc(=O)n(N5CC=CC5)c4)C3)nc(C34CC(C(F)(F)F)(C3)C4)c2nc1C [Example 210, 1-(2,5-dihydropyrrol-1-yl)-5-[(2R,4S)-4-[6,7-dimethyl-4-[3-(trifluoromethyl)-1-bicyclo[1.1.1]pentanyl]pteridin-2-yl]tetrahydropyran-2-yl]pyridin-2-one] | < 100
Cc1nc2nc([C@H]3CCO[C@@H](c4ccc(=O)n(CC(F)F)c4)C3)nc(C34CC(C(F)(F)F)(C3)C4)c2nc1C [Example 71, 1-(2,2-difluoroethyl)-5-[(2R,4S)-4-[6,7-dimethyl-4-[3-(trifluoromethyl)-1-bicyclo[1.1.1]pentanyl]pteridin-2-yl]tetrahydropyran-2-yl]pyridin-2-one] | < 100
Cc1cc(-n2cc([C@H]3CC(c4nc(C56CC(C(F)(F)F)(C5)C6)c5nc(C)c(C)nc5n4)CCO3)ccc2=O)cs1 (stereo partly drawn) [Example 104, 5-((2R)-4-(6,7-dimethyl-4-(3-(trifluoromethyl)bicyclo-[1.1.1]pentan-1-yl)pteridin-2-yl)tetrahydro-2H-pyran-2-yl)-1-(5-methylthiophen-3-yl)pyridin-2 (1H)-one] | < 100
Cc1nc2nc([C@H]3CCO[C@@H](c4ccc(=O)n(N)c4)C3)nc(C34CC(C(F)(F)F)(C3)C4)c2cc1C(F)(F)F [Example 332, 1-amino-5-((2R,4S)-4-(7-methyl-6-(trifluoromethyl)-4-(3-(trifluoromethyl)bicyclo[1.1.1]pentan-1-yl)pyrido[2,3-d]pyrimidin-2-yl)tetrahydro-2H-pyran-2-yl)pyridin-2 (1H)-one] | < 100
Cc1nc2nc([C@H]3CCO[C@@H](c4ccc(=O)n(C)c4)C3)nc(-c3cc(F)c(C(F)(F)F)cc3F)c2nc1C [Example 350] | < 100
COc1nc2c(C34CC(C(F)(F)F)(C3)C4)nc([C@H]3CCO[C@@H](c4ccc(=O)n(CC#N)c4)C3)nc2nc1C [Example 145, 2-[5-[(2R,4S)-4-[6-methoxy-7-methyl-4-[3-(trifluoromethyl)-1-bicyclo-[1.1.1]pentanyl]pteridin-2-yl]tetrahydropyran-2-yl]-2-oxo-1-pyridyl]acetonitrile] | < 100
Cc1nc2nc([C@H]3CCO[C@@H](c4ccc(=O)n(CC5(C)CC5)c4)C3)nc(C34CC(C(F)(F)F)(C3)C4)c2nc1C [Example 100, 5-[(2R,4S)-4-[6,7-dimethyl-4-[3-(trifluoromethyl)-1-bicyclo[1.1.1]pentanyl]pteridin-2-yl]tetrahydropyran-2-yl]-1-[(1-methylcyclopropyl)methyl]pyridin-2-one] | < 100
Cc1cnc2nc([C@H]3CCO[C@@H](c4ccc(=O)[nH]c4)C3)nc(C34CC(C(F)(F)F)(C3)C4)c2n1 [Example 197, 5-((2R,4S)-4-(6-methyl-4-(3-(trifluoromethyl)bicyclo[1.1.1]pentan-1-yl)pteridin-2-yl)tetrahydro-2H-pyran-2-yl)pyridin-2(1H)-one] | 100 to 500
Cc1nc2nc([C@H]3C[C@@H](C)O[C@@H](c4ccc(=O)n(C5CC5)c4)C3)nc(C34CC(C(F)(F)F)(C3)C4)c2nc1C [Example 102, 1-cyclopropyl-5-[(2R,4S,6R)-4-[6,7-dimethyl-4-[3-(trifluoromethyl)-1-bicyclo[1.1.1]pentanyl]pteridin-2-yl]-6-methyl-tetrahydropyran-2-yl]pyridin-2-one] | < 100
COc1nc2c(-c3ccc(C(F)(F)F)cc3F)nc([C@H]3CCO[C@@H](c4ccc(=O)n(C)c4)C3)nc2nc1C [Example 129, 1-methyl-5-[(2R,4S)-4-[4-[2-fluoro-4-(trifluoromethyl)phenyl]-6-methoxy-7-methyl-pteridin-2-yl]tetrahydropyran-2-yl]pyridin-2-one] | < 100
Cc1nc2nc([C@H]3CCO[C@@H](c4ccc(=O)n(C5CC5)c4)C3)nc(C34CC(C(F)(F)F)(C3)C4)c2cc1C(F)(F)F [Example 328, 1-cyclopropyl-5-((2R,4S)-4-(7-methyl-6-(trifluoromethyl)-4-(3-(trifluoromethyl)bicyclo[1.1.1]-pentan-1-yl)pyrido[2,3-d]pyrimidin-2-yl)tetrahydro-2H-pyran-2-yl)pyridin-2(1H)-one] | < 100
Cc1nc2nc([C@H]3CCO[C@@H](c4ccc(=O)n(C)c4)C3)nc(C34CC(CCF)(C3)C4)c2nc1C [Example 48, 5-((2R,4S)-4-(4-(3-(2-fluoroethyl)bicyclo[1.1.1]pentan-1-yl)-6,7-dimethylpteridin-2-yl)tetrahydro-2H-pyran-2-yl)-1-methylpyridin-2(1H)-one] | < 100
CN1Cc2c(cc([C@H]3CCO[C@@H](c4ccc(=O)n(C)c4)C3)nc2-c2ccc(C(F)(F)F)cc2F)C1=O (single isomer, unassigned) [Example 165] | 100 to 500
Cc1nc2cc(N3C[C@@H](C)O[C@@H](c4ccc(=O)[nH]c4)C3)nc(-c3ccc(F)cc3F)c2nc1C [Example 186, 5-((2S,6R)-4-(5-(2,4-difluorophenyl)-2,3-dimethylpyrido[3,4-b]pyrazin-7-yl)-6-methylmorpholin-2-yl)pyridin-2(1H)-one] | 100 to 500
Cc1nc2nc([C@@H]3CCO[C@H](c4ccc(=O)n(C)c4)C3)nc(-c3cc(F)c(C(F)(F)F)cc3F)c2nc1C [Example 349] | > 500
Cc1nc2nc([C@H]3CCO[C@@H](c4ccc(=O)n(C)c4)C3)nc([C@H]3CC[C@@H](F)CC3)c2nc1C [Example 43, 5-((2R,4S)-4-(4-((1s,4R)-4-fluorocyclohexyl)-6,7-dimethylpteridin-2-yl)tetrahydro-2H-pyran-2-yl)-1-methylpyridin-2(1H)-one] | < 100
Cc1cc(-n2cc([C@H]3C[C@@H](c4nc(C56CC(C(F)(F)F)(C5)C6)c5nc(C)c(C)nc5n4)CCO3)ccc2=O)cs1 [Example 105, 5-((2R,4S)-4-(6,7-dimethyl-4-(3-(trifluoromethyl)bicyclo[1.1.1]pentan-1-yl)pteridin-2-yl)tetrahydro-2H-pyran-2-yl)-1-(5-methylthiophen-3-yl)pyridin-2 (1H)-one] | < 100
Cc1nc2nc(C3CCOC(c4ccc(=O)n(C)c4)C3)nc(C34CC(C(F)(F)F)(C3)C4)c2nc1C (centres unmarked) [Example 27, 5-(4-(6,7-dimethyl-4-(3-(trifluoromethyl)-bicyclo[1.1.1]pentan-1-yl)pteridin-2-yl)tetrahydro-2H-pyran-2-yl)-1-methylpyridin-2(1H)-one] | < 100
COc1nc2c(C34CC(C(F)(F)F)(C3)C4)nc([C@H]3CCO[C@@H](c4ccc(=O)n(-c5csc(C)n5)c4)C3)nc2nc1C [Example 153, 5-((2R,4S)-4-(6-methoxy-7-methyl-4-(3-(trifluoromethyl)-bicyclo[1.1.1]pentan-1-yl)pteridin-2-yl)tetrahydro-2H-pyran-2-yl)-1-(2-methylthiazol-4-yl)pyridin-2(1H)-one] | < 100
[2H]C([2H])([2H])n1cc([C@H]2CN(c3nc(C45CC(C(F)(F)F)(C4)C5)c4nc(C)c(C)nc4n3)C[C@@H](C)O2)ccc1=O [Example 354] | < 100
Cc1nc2nc([C@H]3CCO[C@@H](c4ccc(=O)n(NCC(F)F)c4)C3)nc(C34CC(C(F)(F)F)(C3)C4)c2nc1C [Example 214, 1-((2,2-difluoroethyl)amino)-5-((2R,4S)-4-(6,7-dimethyl-4-(3-(trifluoromethyl)bicyclo[1.1.1]pentan-1-yl)pteridin-2-yl)tetrahydro-2H-pyran-2-yl)pyridin-2(1H)-one] | < 100
